Reference: patent publication US20080014186A1, “Hla-A24 or Hla-A2 Binding Peptides of Parathyroid Hormone-Related Protein” (GREEN PEPTIDE CO., LTD., priority 2004, published 2008)

Tests used:
[1] = test system: IgG in plasma of HLA-A2^+ healthy donors and prostate cancer patients; assay: Peptide-specific IgG in plasma by ELISA (HLA-A2-binding PTHrP peptides); design: species or system human; conditions: for IgG reactive to the peptide in plasma (difference of OD): 1:100-diluted plasma
Protocol: Peptide-specific IgG levels in the plasma were measured by ELISA, as previously reported. In brief, peptide (20 μg/well)-immobilized plates were blocked with Block Ace (Yukijirushi, Tokyo, Japan) and washed with 0.05% Tween20-PBS, after which 100 μl/well of plasma sample diluted with 0.05% Tween20-Block Ace was added to the plate. After 2 hours incubation at 37° C., the plates were washed and further incubated for 2 hours with a 1:1000-diluted rabbit anti-human IgG (γ-chain-specific) (DAKO, Glostrup, Denmark). The plates were washed, and then 100 μl of 1:100-diluted goat anti-rabbit IgG-conjugated horseradish peroxidase (EnVision, DAKO) was added to each well, and the plates were then incubated at room temperature for 40 min. After the plates were washed once, 100 μl/well of tetramethyl benzidine substrate solution (KPL, Guildford, UK) was added, and the reaction was stopped by the addition of 1 M phosphoric acid. The values are shown as optical density (OD) units/ml, and responses to the HIV peptide were subtracted. IgG reactive to a corresponding PTHrP peptide was judged to be positive when the difference of the OD in 1:100-diluted plasma exceeded 0.05. The results that IgG reactive to either the PTHrP102-111 or the […] peptide was detected in 8 of 10 healthy donors and in 7 of 10 prostate cancers are shown in Table 2 hereinafter.
In a similar way to Example 3, it was examined whether IgGs reactive to peptides of PTHrP 42-51 and PTHrP 59-67 could be detected in the plasma of 10 healthy donors and 10 cancer patients. The cut-off value at 1:100-diluted plasma was ODO.054.

[2] = test system: PBMCs of HLA-A2^+ healthy donors and prostate cancer patients; assay: Assay for peptide-specific CTLs in PBMCs (IFN-γ ELISA, peptide-pulsed T2 cells); type: cell-based, human; conditions: for INF-γ production: T2 cells
[3] = HLA-A2^+ prostate cancer patients

“FLHHLIAEIH [PTHrP 59-68, previously reported PTHrP peptide generating CTLs from HLA-A*0201 healthy donors [17], reference compound]” was tested, and the “IgG reactive to the peptide in plasma (difference of OD)” value (from here on “IgG reactive … (difference of OD)”) ([1]; HLA-A2^+ healthy donor #1) was 0.0855 OD, the “IgG reactive … (difference of OD)” value ([1]; HLA-A2^+ healthy donor #2) was “— (IgG reactive to a corresponding peptide was judged to be positive when a difference of OD in a 1:100-diluted plasma was more than 0.054.)” and the “IgG reactive … (difference of OD)” value ([1]; HLA-A2^+ healthy donor #3) was “— (IgG reactive to a corresponding peptide was judged to be positive when a difference of OD in a 1:100-diluted plasma was more than 0.054.)”. For the same sequence, the “IgG reactive … (difference of OD)” value ([1]; HLA-A2^+ healthy donor #4) was “— (IgG reactive to a corresponding peptide was judged to be positive when a difference of OD in a 1:100-diluted plasma was more than 0.054.)”, the “IgG reactive … (difference of OD)” value ([1]; HLA-A2^+ healthy donor #5) was “— (IgG reactive to a corresponding peptide was judged to be positive when a difference of OD in a 1:100-diluted plasma was more than 0.054.)” and the “IgG reactive … (difference of OD)” value ([1]; HLA-A2^+ healthy donor #6) was “— (IgG reactive to a corresponding peptide was judged to be positive when a difference of OD in a 1:100-diluted plasma was more than 0.054.)”. The “IgG reactive … (difference of OD)” value ([1]; HLA-A2^+ healthy donor #7) was 0.119 OD, the “IgG reactive … (difference of OD)” value ([1]; HLA-A2^+ healthy donor #8) was 0.167 OD and the “IgG reactive … (difference of OD)” value ([1]; HLA-A2^+ healthy donor #9) was 0.065 OD. For the same sequence, the “IgG reactive … (difference of OD)” value ([1]; HLA-A2^+ healthy donor #10) was 0.112 OD, the “Total (IgG-positive donors / donors tested)” value ([1]; HLA-A2^+ healthy donors) was 5/10 and the “IgG reactive … (difference of OD)” value ([1]; HLA-A2^+ prostate cancer patient #1) was “— (IgG reactive to a corresponding peptide was judged to be positive when a difference of OD in a 1:100-diluted plasma was more than 0.054.)”. The “IgG reactive … (difference of OD)” value ([1]; HLA-A2^+ prostate cancer patient #2) was “— (IgG reactive to a corresponding peptide was judged to be positive when a difference of OD in a 1:100-diluted plasma was more than 0.054.)”, the “IgG reactive … (difference of OD)” value ([1]; HLA-A2^+ prostate cancer patient #3) was 0.0795 OD and the “IgG reactive … (difference of OD)” value ([1]; HLA-A2^+ prostate cancer patient #4) was “— (IgG reactive to a corresponding peptide was judged to be positive when a difference of OD in a 1:100-diluted plasma was more than 0.054.)”. For the same sequence, the “IgG reactive … (difference of OD)” value ([1]; HLA-A2^+ prostate cancer patient #5) was “— (IgG reactive to a corresponding peptide was judged to be positive when a difference of OD in a 1:100-diluted plasma was more than 0.054.)”, the “IgG reactive … (difference of OD)” value ([1]; HLA-A2^+ prostate cancer patient #6) was “— (IgG reactive to a corresponding peptide was judged to be positive when a difference of OD in a 1:100-diluted plasma was more than 0.054.)” and the “IgG reactive … (difference of OD)” value ([1]; HLA-A2^+ prostate cancer patient #7) was “— (IgG reactive to a corresponding peptide was judged to be positive when a difference of OD in a 1:100-diluted plasma was more than 0.054.)”. The “IgG reactive … (difference of OD)” value ([1]; HLA-A2^+ prostate cancer patient #8) was “— (IgG reactive to a corresponding peptide was judged to be positive when a difference of OD in a 1:100-diluted plasma was more than 0.054.)”, the “IgG reactive … (difference of OD)” value ([1]; HLA-A2^+ prostate cancer patient #9) was “— (IgG reactive to a corresponding peptide was judged to be positive when a difference of OD in a 1:100-diluted plasma was more than 0.054.)” and the “IgG reactive … (difference of OD)” value ([1]; HLA-A2^+ prostate cancer patient #10) was 0.1305 OD. The “Total (IgG-positive patients / patients tested)” value [1, 3] was 2/10, the INF-γ production ([2]; HLA-A2^+ healthy donor #1 (A0201)) was 23 pg/mL and the INF-γ production ([2]; HLA-A2^+ healthy donor #2 (A0201)) was 51 pg/mL. It also gave an INF-γ production ([2]; HLA-A2^+ healthy donor #3 (A0201)) of 0 pg/mL, an INF-γ production ([2]; HLA-A2^+ healthy donor #4 (A0201)) of 0 pg/mL and an INF-γ production ([2]; HLA-A2^+ healthy donor #5 (A0206)) of 0 pg/mL. It also gave an INF-γ production ([2]; HLA-A2^+ healthy donor #6 (A0206)) of 46 pg/mL, an INF-γ production ([2]; HLA-A2^+ healthy donor #7 (A0206)) of 0 pg/mL and an INF-γ production ([2]; HLA-A2^+ healthy donor #8 (A0206)) of 0 pg/mL. The INF-γ production ([2]; HLA-A2^+ healthy donor #9 (A0206)) was 0 pg/mL, the INF-γ production ([2]; HLA-A2^+ healthy donor #10 (A0207)) was 0 pg/mL and the “induced peptide-specific CTLs, number of donors” value ([2]; HLA-A2^+ healthy donors) was “no peptide-specific CTLs were induced”. For the same sequence, the “Total (donors with significant peptide-specific IFN-γ production / donors tested)” value ([2]; HLA-A2^+ healthy donors, p < 0.05) was 0/10, the INF-γ production ([2]; HLA-A2^+ prostate cancer patient #1 (A0206)) was 31 pg/mL and the INF-γ production ([2]; HLA-A2^+ prostate cancer patient #2 (A0210)) was 0 pg/mL. For the same sequence, the INF-γ production ([2]; HLA-A2^+ prostate cancer patient #3 (A0210)) was 48 pg/mL, the INF-γ production ([2]; HLA-A2^+ prostate cancer patient #4 (A0206)) was 138 pg/mL and the INF-γ production ([2]; HLA-A2^+ prostate cancer patient #5 (A0206)) was 154 pg/mL. The INF-γ production ([2]; HLA-A2^+ prostate cancer patient #6 (A0207)) was 0 pg/mL, the INF-γ production ([2]; HLA-A2^+ prostate cancer patient #7 (A0206)) was 222 pg/mL and the INF-γ production ([2]; HLA-A2^+ prostate cancer patient #8 (A0206)) was 146 pg/mL. For the same sequence, the INF-γ production ([2]; HLA-A2^+ prostate cancer patient #9 (A0201)) was 43 pg/mL, the INF-γ production ([2]; HLA-A2^+ prostate cancer patient #10 (A0201)) was 112 pg/mL and the “induced peptide-specific CTLs (peptide-specific IFN-γ production), number of patients” value [2, 3] was 5 of 10. The “Total (patients with significant peptide-specific IFN-γ production / patients tested)” value ([2]; HLA-A2^+ prostate cancer patients, p < 0.05) was 5/10.
